“And” between values parts separate entries of the source, which are not always exact repeats. Identical values can stand only once. The source made the active and inactive calls. The rule behind the calls is not given here.
Biological target: Perilipin-1 (Homo sapiens) (UniProt O60240)
Test: inhibitors of ABHD5-PLIN1 binding, dose response, counter-screen for ABHD5-PLIN5 interaction inhibitor project, biochemical, luminescence (AID 651672);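 note: split Gaussia luciferase complementation between ABHD5 and PLIN1 fusion fragments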

Sequence of Perilipin-1 (Homo sapiens) (O60240 whole entry, looked up, the tested form may be a part): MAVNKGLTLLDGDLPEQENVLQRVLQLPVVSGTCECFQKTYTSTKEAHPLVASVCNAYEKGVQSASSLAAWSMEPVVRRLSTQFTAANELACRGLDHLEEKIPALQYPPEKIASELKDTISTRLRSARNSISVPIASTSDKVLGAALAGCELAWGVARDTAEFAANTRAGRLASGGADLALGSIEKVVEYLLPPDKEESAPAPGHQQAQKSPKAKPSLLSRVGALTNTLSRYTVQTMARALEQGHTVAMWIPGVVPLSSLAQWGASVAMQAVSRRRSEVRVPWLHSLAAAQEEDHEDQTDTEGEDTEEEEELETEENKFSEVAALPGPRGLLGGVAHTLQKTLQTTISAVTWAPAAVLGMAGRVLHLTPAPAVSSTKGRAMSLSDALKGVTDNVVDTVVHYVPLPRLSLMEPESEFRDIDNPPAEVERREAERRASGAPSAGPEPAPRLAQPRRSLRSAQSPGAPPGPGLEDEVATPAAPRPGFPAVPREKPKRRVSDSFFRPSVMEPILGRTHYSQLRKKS

| Structure (SMILES) | IC50 |
| --- | --- |
| COc1ccc(/C=C/C(=O)c2cc(F)ccc2OC(=O)c2ccc(OC)c(OC)c2)cc1OC | 2.44 µM |
| C#CCN(C[C@@H]1[C@@H](OC(=O)NCc2ccccc2F)[C@@H](OC(=O)NCc2ccccc2F)Cn2c(=O)ccc(=O)n21)S(=O)(=O)c1ccc(C)cc1 | 4.51 µM |
| N#Cc1ccc(C(C(=O)Nc2ccc3c(c2)OCCO3)n2c(=O)c(-c3ccco3)nc3ccccc32)cc1 (stereo unspecified) | 7.22 µM |
| COc1ccc(C(C(=O)NCc2ccccc2)n2c(=O)c(-c3ccco3)nc3ccccc32)cc1 (stereo unspecified) | 2.17 µM |
| CC1=CC(C)(C)Nc2ccc(OC(=O)CN3C(=O)CCC3=O)cc21 | 1.72 µM |
| CC(C)c1ccc(N2C=Nc3ccc(C(C)C)cc3C2)cc1 | 7.98 µM |
| CCC(c1nc2ccccc2[nH]1)n1c(=O)c(-c2ccco2)nc2ccccc21 (stereo unspecified) | 3.97 µM |
| CCc1nnc(NC(=O)c2nc(S(=O)(=O)Cc3ccccc3)ncc2Cl)s1 | 4.25 µM |
| Cc1ccc(NC(=O)CSc2nnc(-c3ccco3)c(-c3ccco3)n2)cc1 | 2.66 µM |
| CCOC(=O)C1C(OC(=O)c2ccccc2)CC2CCC1N2C (stereo unspecified) | inactive |
| CCCCCNC(=O)C(c1cc2ccccc2o1)n1c(=O)c(-c2ccco2)nc2ccccc21 (stereo unspecified) | 1.48 µM |
| CC1Sc2ccc(S(=O)(=O)N3CCC(C(=O)NCc4ccc(Cl)cc4)CC3)cc2NC1=O (stereo unspecified) | 8.37 µM |
| CCOC1=CC2=C(C(=O)C(Cl)=CC2=O)[C@@H]2CN(S(=O)(=O)c3ccc(C)cc3)[C@@H](c3ccccc3)[C@H]12 | 1.35 µM |
| Cc1ccc(/C=C/C(=O)c2cc(Br)ccc2OC(=O)c2ccco2)cc1 | 0.684 µM |
| COc1ccc(NC(=O)C(c2cccc3ccccc23)n2c(=O)c(-c3ccco3)nc3ccccc32)cc1 (stereo unspecified) | inactive |
| CC1CCN(S(=O)(=O)c2ccc(NC(=O)Cc3ccccc3)cc2)CC1 | 5.33 µM |
| C=CC(=O)N1c2ccccc2Sc2ccc(NC(=O)OCC)cc21 | 5.01 µM |
| CC1CN(Cc2c(O)ccc3c2oc(=O)c2ccccc23)CC(C)O1 (stereo unspecified) | 2.92 µM |
| CC(=O)Oc1c(Cl)cc(N(C(C)=O)S(=O)(=O)c2ccccc2)c2ccccc12 | 3.88 µM |
| O=CC1=C(c2ccccc2)Oc2ccccc2O1 | 2.57 µM |
| CC(=O)OCC1=C(C(=O)O)N2C(=O)C(NC(=O)CCn3nc(C(F)(F)F)c(Br)c3C3CC3)C2SC1 (stereo unspecified) | 8.15 µM |
| COc1ccc(NC(=O)C(c2ccc(OC)cc2)n2c(=O)c(-c3ccco3)nc3ccccc32)cc1 (stereo unspecified) | 7.7 µM |
| CC(C)(C)NC(=O)C(c1ccc(C#N)cc1)n1c(=O)c(-c2ccco2)nc2ccccc21 (stereo unspecified) | 1.41 µM |
| CCOC(=O)c1c(NC(=O)/C=C/C(=O)O)sc(C)c1-c1ccc(C(C)(C)C)cc1 | 4.81 µM |

| Structure (SMILES) | IC50 |
| --- | --- |
| CN1[C@@H]2CC[C@H]1CC(OC1c3ccccc3CCc3ccccc31)C2 (stereo partly specified) | 1.92 µM |
| Cc1cccc(C)c1NC(=O)C(c1ccc(C#N)cc1)n1c(=O)c(-c2ccco2)nc2ccccc21 (stereo unspecified) | 2.66 µM |
| Cc1ccc(S(=O)(=O)N2C[C@H]3n4c(=O)ccc(=O)n4C[C@H](OC(=O)Nc4cccs4)[C@@]3(O)C2)cc1 | 6.5 µM |
| Cc1cccc(C)c1NC(=O)C(c1ccc(C(F)(F)F)cc1)n1c(=O)c(-c2ccco2)nc2ccccc21 (stereo unspecified) | 2.22 µM |
| COc1ccc(NC(=O)c2cc3ccccc3cc2O)cc1 | inactive |
| COC(=O)c1cc(=O)n(-c2ccc(F)cc2)c(=Nc2ccc(F)cc2)s1 | 2.5 µM |
| O=c1nc(/C=C/c2ccc(Cl)cc2Cl)cc(C(F)(F)F)[nH]1 | 2.94 µM |
| C=C[C@]1(C)C[C@@H](OC(=O)CSCCN(CC)CC)[C@]2(C)C(C)CC[C@]3(CCC(=O)[C@H]32)[C@@H](C)[C@@H]1O (stereo partly specified) | inactive |
| N#Cc1ccc(C(C(=O)NC2CCCCC2)n2c(=O)c(-c3ccco3)nc3ccccc32)cc1 (stereo unspecified) | 1.92 µM |
| COC(=O)c1ccc(Cn2cc(/C=C\[N+](=O)[O-])c3ccccc32)o1 | > 13.3 µM (inactive) |
| NC(=NCCCCCCN=C(N)/N=C(\N)Nc1ccc(Cl)cc1)/N=C(\N)Nc1ccc(Cl)cc1 | 2.86 µM and 2.31 µM |
| Cc1cccc(C)c1NC(=O)C(c1cccc2ccccc12)n1c(=O)c(-c2ccco2)nc2ccccc21 (stereo unspecified) | 2.4 µM |
| COCCN(CCOC)c1nc(N)c2c(N)nc3c(c2c1C#N)CC(=O)N3Cc1ccc(Cl)cc1 | 6.57 µM |
| Cc1ccc(C(=O)c2c(C)oc3c2C(=O)C(=O)c2ccccc2-3)cc1 | 5.4 µM |
| Cc1ccc(/C(O)=C2/C(=O)C(=O)OC2c2ccc(Cl)cc2)cc1 (stereo unspecified) | 9.38 µM |
| CC(C)(C)NC(=O)C(c1ccncc1)n1c(=O)c(-c2ccco2)nc2ccccc21 (stereo unspecified) | 2.42 µM |
| CCN1CCN(Cc2ccc(NC(=O)c3ccc(C)c(/C=C/c4cnc(Nc5cc(N6CCNCC6)nc(C)n5)cn4)c3)cc2C(F)(F)F)CC1 | 3.42 µM |
| O=C(Nc1ccc2c(c1)OCCO2)C(c1ccccc1F)n1c(=O)c(-c2ccco2)nc2ccccc21 (stereo unspecified) | 9.21 µM |
| CC1=CC2C(C(O)CC3(C)C2CC(C)C32OCOC23COCO3)C2(C)C/C(=C\O)C(=O)C=C12 (stereo unspecified) | 3.51 µM |
| N#Cc1ccc(C(C(=O)NCc2ccccc2)n2c(=O)c(-c3ccco3)nc3ccccc32)cc1 (stereo unspecified) | 1.7 µM |
| COc1ccc(C(C(=O)Nc2c(C)cccc2C)n2c(=O)c(-c3ccco3)nc3ccccc32)cc1 (stereo unspecified) | 1.88 µM |
| CCOC(=O)N1CCN(C(=O)C[C@@H]2C[C@@]3(C(=O)OCC)CCC=C3N(Cc3ccc(Cl)cc3Cl)C2=O)CC1 | 9.78 µM |
| CCC(C)NC(=O)Nc1ccc2c(c1)N(C)C(=O)c1ccccc1S2 (stereo unspecified) | 3.7 µM |
| CC(=O)Nc1ccc(S(=O)(=O)N2c3ccc(F)cc3CCC2C)cc1 (stereo unspecified) | inactive |

| Structure (SMILES) | IC50 |
| --- | --- |
| CCCc1nc(C)c2c(=O)[nH]c(-c3cc(S(=O)(=O)N4CCN(CC)CC4)ccc3OCC)nn12 | 2.45 µM |
| O=C(CF)N(O)c1ccc(C=Cc2ccccc2)cc1 | > 13.3 µM (inactive) |
| CS(=O)(=O)c1ccc(C(=O)NCCN2C(=O)S/C(=C\c3cccnc3)C2=O)cc1[N+](=O)[O-] | 5.14 µM |
| CN(C)CCOc1ccc(/C(=C(/CCCl)c2ccccc2)c2ccccc2)cc1 | 1.14 µM |
| CCCCn1c(SCC(=O)NCc2ccco2)nnc1-c1ccoc1C | 4.71 µM |
| COc1cc(C)c2sc3ccccc3c(=O)c2c1NCCN(C)C | 6.3 µM |
| CN1CCC[C@@H]1CCO[C@](C)(c1ccccc1)c1ccc(Cl)cc1 | inactive |
| CC(C)(C)NC(=O)C(c1ccnc2ccccc12)n1c(=O)c(-c2ccco2)nc2ccccc21 (stereo unspecified) | 4.29 µM |
| Cc1ccc(CC2(OCCN(C)C)CCC(C(C)(C)C)CC2)cc1 (stereo unspecified) | 9.48 µM |
| COc1cc(C(C)=O)ccc1OCc1cn(CC(=O)c2ccc(O)cc2)nn1 | 4.59 µM |
| C#CCN(C[C@@H]1[C@@H](OC(=O)NCCCCCC)[C@@H](OC(=O)NCCCCCC)Cn2c(=O)ccc(=O)n21)S(=O)(=O)c1ccc(C)cc1 | 5.99 µM |
| CC(CCc1ccco1)NC(=O)CCc1nnc2ccc(NCc3ccccc3Cl)nn12 (stereo unspecified) | 2.03 µM |
| O=C(NCc1ccccc1)C(c1ccccc1F)n1c(=O)c(-c2ccco2)nc2ccccc21 (stereo unspecified) | 2.31 µM |
| COC/C=C/C1=CC2=CC(=O)C(C)(OC(=O)C3CCCC3)C(=O)C2=CO1 (stereo unspecified) | 2.45 µM |
| O=c1[nH]c(C2CCN(S(=O)(=O)c3ccc(S(=O)(=O)NC4CC4)cc3)CC2)nc2c1nnn2Cc1ccc(F)cc1 | 3.56 µM |
| O=C(O)CC(O)(CC(=O)O)C(=O)O | 3.71 µM |
| CCN(CC)CCOc1ccc(/C(=C(\Cl)c2ccccc2)c2ccccc2)cc1 | 2.23 µM |
| FC(F)(F)c1cccc(NC(=S)N(CCCN2CCCC2)Cc2cccn2Cc2ccc(Cl)cc2)c1 | inactive |
| CCOC(=O)/C(=C\c1ccc(Cl)cc1)c1nc2sc(C)c(C)c2c(=O)[nH]1 | 0.525 µM |
| Cc1cccc(NC(=O)CSc2nnc(-c3ccco3)c(-c3ccco3)n2)c1 | 1.92 µM |
| COc1ccc(C(C(=O)NC2CCCCC2)n2c(=O)c(-c3ccco3)nc3ccccc32)cc1 (stereo unspecified) | 1.27 µM |
| CC1(C)C2CCC(CN=C(N)CSS(=O)(=O)O)C1C2 (stereo unspecified) | 4.29 µM |
| COc1cc(OC)cc(C(=O)NC(=S)N(Cc2ccccc2)C(C)C)c1 | inactive |
| O=C(NCc1ccccc1)C(C1CC1)n1c(=O)c(-c2ccco2)nc2ccccc21 (stereo unspecified) | 6.05 µM |

| Structure (SMILES) | IC50 |
| --- | --- |
| O=C(NCc1ccccc1)C(c1ccccc1)n1c(=O)c(-c2ccco2)nc2ccccc21 (stereo unspecified) | 2.5 µM |
| CSc1nnc(NC(=O)c2nc(S(=O)(=O)Cc3ccccc3F)ncc2Cl)s1 | 2.16 µM |
| COc1ccc(C(C(=O)NC(C)(C)C)n2c(=O)c(-c3ccco3)nc3ccccc32)cc1 (stereo unspecified) | 1.82 µM |
| Cc1cccc(C)c1NC(=O)C(c1ccccc1)n1c(=O)c(-c2ccco2)nc2ccccc21 (stereo unspecified) | 3.37 µM |
| COc1ccc(C)c2sc(N(CCN(C)C)C(=O)/C=C/c3cccs3)nc12 | inactive |
| CCCc1nnc(NC(=O)c2nc(S(=O)(=O)Cc3cccc(C)c3)ncc2Cl)s1 | 2.83 µM |
| O=C1/C(=C/c2cccnc2)CC/C1=C\c1cccnc1 | 5.83 µM |
| C#CCN(C[C@@H]1[C@@H](OC(=O)NCc2ccc(OC)c(OC)c2)[C@@H](OC(=O)NCc2ccc(OC)c(OC)c2)Cn2c(=O)ccc(=O)n21)S(=O)(=O)c1ccc(C)cc1 | 4.59 µM |
| Cc1ccc(SC2=C(Sc3ccc(C)cc3)C(=O)c3ccccc3C2=O)cc1 | 6.71 µM |
| CCN(CC)CCNC(=O)c1ccc(NC(=O)c2cn(-c3ccccc3)nc2-c2cccs2)cc1 | inactive |
| CCN(CC)CCN(CC(=O)Nc1c(C)cc(C)cc1C)C(=O)c1ccccc1 | inactive |
| CCC(=O)Nc1cccc(C(=O)/C=C/c2ccccc2)c1 | 1.99 µM |
| Cc1ccc(C(=O)/C=C/c2cc(Br)cc(Br)c2O)o1 | 5.75 µM |
| O=C(Nc1ccc2c(c1)OCCO2)C(c1ccnc2ccccc12)n1c(=O)c(-c2ccco2)nc2ccccc21 (stereo unspecified) | inactive |
| CCSc1ccc2c(c1)N(CCCN1CCN(C)CC1)c1ccccc1S2 | 6.35 µM |
| COc1cc(/C=C/C(=O)c2ccc(Cl)s2)cc(OC)c1O | 4.59 µM |
| O=C(/C(=C/O)N=Nc1ccc(Cl)cc1)c1ccncc1 | 7.4 µM |
| CSc1nnc(NC(=O)c2nc(S(=O)(=O)Cc3ccccc3)ncc2Cl)s1 | 3.27 µM |
| O=c1[nH]c(C2CCN(S(=O)(=O)c3ccc(F)cc3)CC2)nc2c1nnn2Cc1ccc2c(c1)OCCO2 | inactive |
| CCN1C/C(=C/c2ccc(OC)c(O)c2)C(=O)/C(=C/c2ccc(OC)c(O)c2)C1 | 7.54 µM |
| CSc1nnc(NC(=O)c2nc(S(=O)(=O)Cc3ccc(C)cc3)ncc2Cl)s1 | 3.1 µM |
| O=C1NC(=S)NC(=O)C12C(c1ccccc1)NC(=S)NC2c1ccccc1 (stereo unspecified) | 4.34 µM |
| Cc1ccc2nc3cc([N+](=O)[O-])cc([N+](=O)[O-])c3cc2c1 | 0.801 µM |
| O=C(/C=C/c1ccccc1)CC(O)(c1ccccc1)C(F)(F)C(F)F (stereo unspecified) | 0.821 µM |
